Reference: patent US20200297862A1, “METHODS OF USING BISPECIFIC ANTIGEN-BINDING CONSTRUCTS TARGETING HER2” (Zymeworks Inc., priority 2016, published 2020)
Where two headings read alike, the source gives them in different places.

Tests used:
[1] = molecular target: recombinant human HER2 (Homo sapiens, UniProt P04626); experiment: SPR binding of captured antibody to HER2 at varying antibody capture levels
Source text: An SPR assay was used to evaluate the mechanism by which an exemplary anti-HER2 biparatopic antibody binds to HER2 ECD; specifically, to understand whether both paratopes of one biparatopic antibody molecule can bind to one HER2 ECD (Cis binding; 1:1 antibody to HER2 molecules) or if each paratope of one biparatopic antibody can bind two different HER2 ECDs (Trans binding; 1:2 antibody to HER2 molecules). […] The correlation between a reduced (slower) off-rate with increasing antibody capture levels (surface density) is an indication of Trans binding (i.e. one antibody molecule binding to two HER2 molecules.
Between 2000 and 4000 RU of anti-human Fc injected at concentration between 5 and 10 μg/ml was immobilized on a CMS chip using standard amine coupling. […] HER2 dilutions were analyzed in duplicate. Sensograms were fit globally to a 1: 1 Langmuir binding model. All experiments were conducted at 25° C.
The following experiment was conducted to compare HER2 binding kinetics (kd, off-rate) of exemplary anti-HER2 ECD2×ECD4 biparatopic antibodies when captured at varying surface densities by SPR.

[2] = test system: JIMT-1 cells; experiment: Cellular staining and location by confocal microscopy at 1, 3 and 16 h; assay type: cell-based, human; settings: 200 nM antibody, 1 h, 3 h
Protocol: Cells were gently washed two times with warmed sterile PBS (500 ml/well). Cells were fixed with 250 ml of 10% formalin/PBS solution for 10 min at RT. The fixed cells were washed three times with PBS (500 μl/well), permeabilized with 250 μl/well of PBS containing 0.2% Triton X-100 for 5 min, and washed three times with 500 μl/well PBS. Cells were blocked with 500 μl/well of PBS+5% goat serum for 1 h at RT. […] Cells were washed three times with 500 μl/well of PBS and the coverslips containing fixed cells were then mounted on a slide using Prolong gold anti-fade with DAPI (Life Technologies; # P36931). 60× single images were acquired using Olympus FV1000 Confocal microscope.

[3] = test system: FaDu xenograft; assay type: in vivo; settings: for median survival: study duration 59 days
Protocol: FaDu cells are derived from squamous cell cancer of the head and neck that is HER2 low, non-HER2 gene amplified, HER3+, EGFR+ and highly sensitive to Cisplatin at the MTD.
Tumor cell suspensions were implanted subcutaneously into athymic nude mice. […] Cisplatin was purchased and provided for the study by Charles River Laboratories (Morrisville, N.C.). Animals were treated according to Regimen 1 at Day 1, followed by Regimen 2 on subsequent days as noted in Table A4.

[4] = Thermal stability by DSC; assay type: physicochemical
Protocol: DSC was performed in the MicroCal™ VP-Capillary DSC (GE Healthcare) using a purified protein sample (anti-HER2 biparatopic antibodies and anti-HER2 biparatopic-ADCs) adjusted to about 0.3 mg/ml in PBS. The sample was scanned from 20 to 100° C. at a 60° C./hr rate, with low feedback, 8 sec filter, 5 min preTstat, and 70 psi nitrogen pressure. The resulting thermogram was analyzed using Origin 7 software.
The DSC was measured before and after SEC purification.

[5] = test system: HBCx-5 xenograft; experiment: Trastuzumab resistant breast cancer PDX, ADC (Example 20); assay type: in vivo, athymic nude mice; settings: Day 43
Protocol: Dosing for each group was as follows:
A) IgG control was dosed intravenously with a loading dose of 15 mg/kg on study day 1 and maintenance doses of 10 mg/kg administered on study days 4, 8, 11, 15, 18, 22, and 25
Tumor volume was measured throughout the course of the study, and the mean tumor volume, T/C ratio, number of responders, complete response, and zero residual disease parameters were assessed at day 43.

[6] = Kaplan-Meier survival, log-rank test

Compound: v4182: monovalent anti-HER2 antibody, pertuzumab Fab on chain A; the OA of Table 11D
- kd (1/s) over a range of antibody capture levels [1]: no change in kd values

Compound: v4184: bivalent anti-HER2 antibody, pertuzumab Fabs, heterodimeric Fc, pertuzumab analog
- cellular staining and location [2]: pronounced plasma membrane staining at the 1, 3 and 16 h time points

Compound: N.N.[Cl][Pt][Cl] [cisplatin]
- RECIST Scores CR(TV < 20 mm^3) ([3]; Day 25, animals/group): 0/15
- RECIST Scores PD(>20% baseline growth) ([3]; Day 25, animals/group): 15/15
- RECIST Scores PR(>30% baseline regression) ([3]; Day 25, animals/group): 0/15
- RECIST Scores SD(neither PD or PR) ([3]; Day 25, animals/group): 0/15
- Mean TV % Δ from base line ([3]; Day 25, regimens of Table A4): (782%)
- Treatment/Control Ratio ([3]; Day 25, regimens of Table A4): 0.54
- Mean TV ([3]; Day 25, regimens of Table A4 (antibodies 15 then 10 mg/kg iv; cisplatin 2 mg/kg ip)): 1070 mm^3
- Log Rank Summary (survival) vs 6336 [3, 6]: n/s
- Log Rank Summary (survival) vs 6908 [3, 6]: ★★★ (★★★ = P < 0.001)
- Log Rank Summary (survival) vs 10000 [3, 6]: ★ (★ = P < 0.05)
- Median Time to Progression ([3]; regimens of Table A4): 8.4 days
- median survival [3]: 40 days
- median survival ([3]; euthanized when tumor volume exceeded 2000 mm^3): 40 days

Compound: v9996: monovalent anti-HER2 antibody, pertuzumab Fab with Y96A in VL and T30A/A49G/L69F in VH
- DSC post-SEC ΔTm wrt WT (C) ([4]; after SEC purification, WT = v10013): −0.7 C
- DSC pre-SEC ΔTm wrt WT (C) ([4]; before SEC purification, WT = v10013): −0.2 C
- DSC post-SEC Tm (C) ([4]; one-armed antibody, after SEC purification): 77.2 C
- DSC pre-SEC Tm (C) ([4]; one-armed antibody, before SEC purification): 77.2 C

Compound: T-DM1
- Complete response (>10% baseline regression) [5]: 1/7
- Mean TV % change from Baseline [5]: +65%
- Mean TV (mm3) [5]: 193 mm3
- Responders (TV < 50% of control) [5]: 6/7
- T/C (IgG) ratio [5]: 0.21
- Zero residual disease (TV < 20 mm3) [5]: 0/7
